From patent publication US20030181436A1, “Treatment for AIDS, HIV, and other related diseases and compounds for use therewith” (priority 2001, published 2003) come the findings set out here.

In this data set the test system is PBMCs. The class given is cell-based, Human. The procedure: Peripheral blood […] cells (PBMCs) were obtained from normal hepatitis B and C and HIV-1 negative donors by ficoll hypaque gradient separation. Briefly, anti-coagulated blood was diluted 1:1 with Dulbecco's phosphate buffered saline without Ca^+2 and Mg^+@ (PBS) and layered over 14 mL of Lymphocyte separation media in a 50 ml centrifuge tube. Tubes were then centrifuged for 30 minutes at 600×g. Banded PBLs were gently aspirated from the resulting interface and subsequently washed 2× with PBS by low speed centrifugation. The mononuclear cells were counted, viability determined by Trypan Blue dye exclusion and resuspended in RPMI 1640 medium supplemented with 15% FBS (heat inactivated), 2 mM L-glutamine, 100 U/mL penicillin, 100 μg/mL streptomycin, and 10 μg/mL gentamycin with 2 μg/mL phytohemagluttin (PHA) at 1×10^6 cells/mL. The cells were cultured for 48 to 72 h at 37° C., 5%, C^02. Following incubation, cells were collected by centrifugation, washed and resuspended in RPMI 1640 supplemented with 15% FBS (heat inactivated), 2 mM L-glutamine, 100 U/mL penicillin, 100 μg/mL streptomycin, and 10 μg/mL gentamycin with 40 U/mL, recombinant IL-2 (R & D Systems, Minneapolis, Minn.). IL-2 was included in the culture medium to maintain the cell division initiated by the PHA mitogenic stimulation. The cultures were then maintained until use by ½ culture volume change with fresh IL-2 containing medium every 3 days.
Human peripheral blood mononuclear cells from a minimum of 2 donors, that were blasted with PHA and IL-2, were counted, viability determined by Trypan Blue dye exclusion and mixed in equal ratios. Pooled donors were used to minimize the variability observed between individual donors which results from quantitative and qualitative differences in HIV infection and overall response to the PHA and IL-2 of primary lymphocyte populations. […] The assay was incubated for 6 days in a humidified atmosphere at 37° C., 5% CO2, the plates analyzed for cell viability by MTS dye reduction or incorporation of [^3H] metabolite incorporation.
[^3H]Uridine, [^3H] thymidine or [^3H]leucine incorporation were measured in the following manner. […] Incorporation was then determined on a Wallac Microbeta counter following lysis of the cells with H2O and capture on glass fiber filters using a Skatron harvester.
At assay termination the assay plates were stained with the soluble tetrazolium-based dye MTS (CellTiter® Reagent, Promega) to determined cell viability and quantify compound toxicity. MTS is metabolized by the mitochondria enzymes of metabolically active cells to a soluble formazan product, allowing the rapid quantitative analysis cell viability and compound cytotoxicity. […]

On to Potassium Iodiscorbate [Compound K], for which the “TC50 in PBMCs by MTS” value was 499 µg/mL; the “non-toxic to PBMCs at concentrations” value is given as “above 400 μg/ml”; the “protein (leucine incorporation) and RNA (uridine incorporation) production start to drop” value was “above 32 μg/ml”.
Consider Zinc Iodiscorbate [Compound Z], for which the “non-toxic to PBMCs at concentrations” value is “above 400 μg/ml”.
